pIC50: −log10 of the molar value. Where two headings read alike, the source gives them in different places.
Tests used:
guinea pig chymase = target: T1, guinea pig chymase (Cavia porcellus, UniProt A7WPL7, G52S); assay: Assay for chymase inhibition (fluorogenic AAPF-AMC substrate), guinea pig chymase; format: biochemical; conditions: recombinant guinea pig chymase; 0.02 mM AAPF-substrate, 1 nM chymase, pH 7.4, 30 min pre-incubation, room temperature; read-out: Inhibition of guinea pig chymase activity, IC50, GP chymase
T1 construct: Thereby the mature guinea pig chymase with the correct N-terminus was formed; 26-amino acid N-terminal polypeptide with 6xHis tag and enterokinase cleavage site (N, cleaved yes); made in house
T1 sequence (A7WPL7 22-247 G52S): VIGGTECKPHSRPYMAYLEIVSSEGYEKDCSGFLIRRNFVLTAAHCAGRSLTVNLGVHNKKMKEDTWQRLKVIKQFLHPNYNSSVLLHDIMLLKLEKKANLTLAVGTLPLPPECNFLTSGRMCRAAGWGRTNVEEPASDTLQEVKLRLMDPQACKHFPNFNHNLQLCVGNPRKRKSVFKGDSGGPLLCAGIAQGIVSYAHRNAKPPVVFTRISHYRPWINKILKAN

Human Chymase coli = target: T2, Human Chymase coli (Homo sapiens, UniProt P23946); assay: Assay for chymase inhibition (fluorogenic AAPF-AMC substrate), human chymase; format: biochemical
T2 construct: Chymase purified from human skin mast cells was obtained from Calbiochem; purchased Calbiochem (Merck Biosciences, San Diego, Calif., USA); host or cells: human skin mast cells
T2 sequence (P23946 22-247): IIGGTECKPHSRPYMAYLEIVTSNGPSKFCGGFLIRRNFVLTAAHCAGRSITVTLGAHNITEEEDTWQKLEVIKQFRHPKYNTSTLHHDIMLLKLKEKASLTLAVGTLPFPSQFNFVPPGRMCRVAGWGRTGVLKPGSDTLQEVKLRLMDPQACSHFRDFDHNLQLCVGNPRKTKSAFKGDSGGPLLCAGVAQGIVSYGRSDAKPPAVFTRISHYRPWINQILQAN
Protocol: The peptide was synthesized with a purity of 95% from Bachem, Bubendorf, Switzerland). Chymase purified from human skin mast cells was obtained from Calbiochem (Merck Biosciences, San Diego, Calif., USA). The assay buffer was 0.15 M NaCl, 0.05M, Tris HCl, 0.05% CHAPS, 0.1 mg/ml Heparin (Heparin sodium, Sigma, porcine intestinal mucosa), 0.02mM AAPF-substrate, 1 nM Chymase at pH 7.4. The assay was performed in 96-well plates (Packard Optiplate), with a 0.05 ml volume at room temperature. Chymase activity was indicated by the initial rate of increase in fluorescence at 340/440 nm (excitation/emission) from free 7-amino-4-methylcoumarin released from the substrate. Inhibition of the activity by inhibitory compounds was read after 30 min pre-incubation with the chymase at room temperature in assay buffer without AAPF-substrate. The assay was then started by addition of the indicated concentration of AAPF-substrate.

Row | pIC50 (guinea pig chymase) | pIC50 (Human Chymase coli; human chymase, 0.02 mM AAPF-substrate, 1 nM chymase, pH 7.4, 30 min pre-incubation, room temperature, read-out: Inhibition of chymase activity, IC50, Human Chymase coli) | pIC50 (Human Chymase coli) | SMILES
1 | 6.03 | 6.24 | – | CC(=O)NCCc1c(C(c2ccccc2)c2c(O)c3ccccc3n(C)c2=O)[nH]c2ccccc12 (stereo not shown) [SF2809-V, N-(2-{2-[(4-Hydroxy-1-methyl-2-oxo-1,2-dihydro-quinolin-3-yl)-phenyl-methyl]-1H-indol-3-yl}-ethyl)-acetamide]
2 | 6.46 | – | 6.23 | COC(=O)c1ccc(NS(=O)(=O)c2sc3ccc(F)cc3c2C)c(S(C)(=O)=O)c1 [TY-51076, 4-(5-Fluoro-3-methyl-benzothiophene-2-sulfonylamino)-3-methanesulfonyl-benzoic acid methyl ester]
